From patent publication US10870647B2, “Imidazopyridine derivative, method for preparing same, and pharmaceutical composition containing same as active ingredient for preventing or treating cancer” (DAEGU-GYEONGBUK MEDICAL INNOVATION FOUNDATION, priority 2016, dated 2020)

What was measured:
Assay in all cases: Kinase selectivity, scanMAX Kinase assay panel (DiscoverX), % control at 1 uM
Assay type in all cases: binding
[1] = target: T1, scanMAX Kinase assay panel (Homo sapiens, UniProt P42336, E542K); conditions: PIK3CA (E542K); 1 uM; read-out: Percent Control (%)
T1 construct: purchased DiscoverX
T1 sequence (P42336 whole entry E542K): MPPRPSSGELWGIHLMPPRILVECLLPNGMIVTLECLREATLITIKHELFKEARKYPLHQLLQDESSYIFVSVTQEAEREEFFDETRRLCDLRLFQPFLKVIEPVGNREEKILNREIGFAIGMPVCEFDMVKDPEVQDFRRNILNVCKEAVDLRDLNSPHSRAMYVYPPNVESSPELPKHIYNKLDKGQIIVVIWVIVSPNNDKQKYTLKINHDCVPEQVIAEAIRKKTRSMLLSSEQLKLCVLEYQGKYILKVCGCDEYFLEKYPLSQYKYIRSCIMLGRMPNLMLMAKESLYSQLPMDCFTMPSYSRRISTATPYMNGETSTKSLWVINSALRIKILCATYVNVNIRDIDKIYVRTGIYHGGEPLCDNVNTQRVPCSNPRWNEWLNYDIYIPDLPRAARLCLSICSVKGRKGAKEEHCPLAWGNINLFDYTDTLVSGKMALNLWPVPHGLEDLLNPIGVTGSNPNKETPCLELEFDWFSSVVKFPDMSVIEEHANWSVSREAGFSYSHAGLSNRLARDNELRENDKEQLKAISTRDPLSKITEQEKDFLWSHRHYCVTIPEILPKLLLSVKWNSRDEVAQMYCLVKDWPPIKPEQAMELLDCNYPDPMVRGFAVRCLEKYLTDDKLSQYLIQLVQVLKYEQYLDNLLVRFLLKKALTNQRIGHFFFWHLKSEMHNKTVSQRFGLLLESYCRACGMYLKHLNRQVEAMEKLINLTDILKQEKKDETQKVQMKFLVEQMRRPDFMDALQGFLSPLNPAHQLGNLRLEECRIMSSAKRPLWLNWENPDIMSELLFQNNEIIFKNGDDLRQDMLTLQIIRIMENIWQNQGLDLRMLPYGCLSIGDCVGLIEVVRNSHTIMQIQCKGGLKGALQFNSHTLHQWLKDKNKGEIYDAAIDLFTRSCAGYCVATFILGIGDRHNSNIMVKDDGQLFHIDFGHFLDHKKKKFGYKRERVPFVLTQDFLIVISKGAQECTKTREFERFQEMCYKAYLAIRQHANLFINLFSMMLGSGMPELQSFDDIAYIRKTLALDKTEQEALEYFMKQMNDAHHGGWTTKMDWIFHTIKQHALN
Procedure, shortened: (§1)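 Each kinase was first exposed to the test compound at 1 uM in DMSO. Signal was then normalised to positive and negative controls to give % control. Finally, any enzyme showing <35% control was judged inhibited.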

[2] = target: T2, scanMAX Kinase assay panel (Homo sapiens, UniProt Q8IVH8); conditions: MAP4K3; 1 uM; read-out: Percent Control (%)
T2 construct: purchased DiscoverX
T2 sequence (Q8IVH8 1-894): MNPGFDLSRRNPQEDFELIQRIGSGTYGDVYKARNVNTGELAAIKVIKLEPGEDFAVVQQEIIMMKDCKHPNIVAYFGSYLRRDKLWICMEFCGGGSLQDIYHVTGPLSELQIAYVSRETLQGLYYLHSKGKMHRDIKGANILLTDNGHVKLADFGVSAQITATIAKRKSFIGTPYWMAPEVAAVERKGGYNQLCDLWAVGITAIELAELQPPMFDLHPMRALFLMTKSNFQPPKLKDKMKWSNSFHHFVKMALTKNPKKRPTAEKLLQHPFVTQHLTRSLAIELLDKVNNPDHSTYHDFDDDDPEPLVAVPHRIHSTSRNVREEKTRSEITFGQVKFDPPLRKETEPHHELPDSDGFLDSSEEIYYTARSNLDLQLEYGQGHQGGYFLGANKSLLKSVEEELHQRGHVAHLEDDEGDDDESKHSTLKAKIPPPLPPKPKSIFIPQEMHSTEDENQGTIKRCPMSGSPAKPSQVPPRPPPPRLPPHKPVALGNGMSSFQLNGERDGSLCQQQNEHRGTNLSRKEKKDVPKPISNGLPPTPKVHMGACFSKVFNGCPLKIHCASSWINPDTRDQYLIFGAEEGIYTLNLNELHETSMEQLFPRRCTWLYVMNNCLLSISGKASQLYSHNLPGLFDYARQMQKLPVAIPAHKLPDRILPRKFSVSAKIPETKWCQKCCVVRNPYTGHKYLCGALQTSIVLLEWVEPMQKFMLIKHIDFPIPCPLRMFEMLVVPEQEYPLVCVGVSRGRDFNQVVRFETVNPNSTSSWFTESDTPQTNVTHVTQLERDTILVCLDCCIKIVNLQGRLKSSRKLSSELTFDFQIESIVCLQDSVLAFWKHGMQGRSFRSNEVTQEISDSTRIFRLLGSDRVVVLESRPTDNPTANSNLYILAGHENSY
Procedure, shortened: as §1

[3] = target: T3, scanMAX Kinase assay panel (Homo sapiens, UniProt Q6ZN16); conditions: MAP3K15; 1 uM; read-out: Percent Control (%)
T3 construct: purchased DiscoverX
T3 sequence (Q6ZN16 1-1313): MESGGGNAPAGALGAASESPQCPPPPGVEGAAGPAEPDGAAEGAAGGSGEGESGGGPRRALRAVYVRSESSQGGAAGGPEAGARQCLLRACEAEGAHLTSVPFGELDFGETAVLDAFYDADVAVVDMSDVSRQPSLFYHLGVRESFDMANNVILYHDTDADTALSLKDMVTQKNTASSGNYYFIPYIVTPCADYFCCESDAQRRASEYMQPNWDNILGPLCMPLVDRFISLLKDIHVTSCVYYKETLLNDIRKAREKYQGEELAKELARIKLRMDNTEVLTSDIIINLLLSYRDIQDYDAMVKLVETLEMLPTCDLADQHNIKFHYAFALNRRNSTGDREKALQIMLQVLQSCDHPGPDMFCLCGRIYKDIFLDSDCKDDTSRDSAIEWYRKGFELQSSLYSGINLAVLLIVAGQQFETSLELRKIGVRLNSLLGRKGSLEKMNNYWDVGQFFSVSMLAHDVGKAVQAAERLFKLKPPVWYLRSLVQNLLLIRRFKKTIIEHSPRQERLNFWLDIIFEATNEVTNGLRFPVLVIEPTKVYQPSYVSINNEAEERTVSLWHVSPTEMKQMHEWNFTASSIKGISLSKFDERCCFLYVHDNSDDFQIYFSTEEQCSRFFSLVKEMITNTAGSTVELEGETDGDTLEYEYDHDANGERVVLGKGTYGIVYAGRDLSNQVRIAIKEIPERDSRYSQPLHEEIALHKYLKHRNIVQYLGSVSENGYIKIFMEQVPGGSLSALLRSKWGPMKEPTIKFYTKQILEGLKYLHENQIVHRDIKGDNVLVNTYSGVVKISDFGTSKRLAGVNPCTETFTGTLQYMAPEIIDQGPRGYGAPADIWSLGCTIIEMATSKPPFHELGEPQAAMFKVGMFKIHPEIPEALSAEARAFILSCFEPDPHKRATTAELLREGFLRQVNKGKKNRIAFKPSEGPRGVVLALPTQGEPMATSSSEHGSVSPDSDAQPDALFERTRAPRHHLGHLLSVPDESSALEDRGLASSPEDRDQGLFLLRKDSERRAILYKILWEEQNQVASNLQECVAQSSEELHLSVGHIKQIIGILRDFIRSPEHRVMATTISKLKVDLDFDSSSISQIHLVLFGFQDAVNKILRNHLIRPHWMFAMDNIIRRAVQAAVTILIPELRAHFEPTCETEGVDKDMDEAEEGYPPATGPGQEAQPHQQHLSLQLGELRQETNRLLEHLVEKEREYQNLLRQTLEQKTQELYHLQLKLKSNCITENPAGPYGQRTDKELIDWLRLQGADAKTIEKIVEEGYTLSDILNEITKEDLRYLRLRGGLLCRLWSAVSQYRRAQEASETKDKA
Procedure, shortened: as §1

Structure (SMILES) | remaining binding at 1 µM [1] [%] | remaining binding at 1 µM [2] [%] | remaining binding at 1 µM [3] [%]
Cc1ccc(NC(=O)C2(C(=O)Nc3ccc(F)cc3)CC2)cc1C#Cc1cnc2c(Nc3cnn(C(C)C)c3)cccn12 [Example 78] | 100 | 100 | 98
Cc1cn(-c2cc(NC(=O)c3ccc(C)c(C#Cc4cnc5c(Nc6cnn(C)c6)cccn45)c3)cc(C(F)(F)F)c2)cn1 [Example 12, 4-methyl-N-(3-(4-methyl-1H-imidazol-1-yl)-5-(trifluoromethyl)phenyl)-3-((8-((1-methyl-1H-pyrazol-4-yl)amino)imidazo[1,2-a]pyridin-3-yl)ethynyl)benzamide] | 100 | 66 | 100
Cc1ccc(C(=O)Nc2ccc(CN3CCN(C)CC3)c(C(F)(F)F)c2)cc1C#Cc1cnc2c(Nc3cnn(C)c3)cccn12 [Example 1, 4-methyl-3-((8-((1-methyl-1H-pyrazol-4-yl)amino)imidazo[1,2-a]pyridin-3-yl)ethynyl)-N-(4-((4-methylpiperazin-1-yl)methyl)-3-(trifluoromethyl)phenyl)benzamide] | 100 | 25 | 72
